Source: patent publication US20240189408A1, “COMPOSITIONS AND METHODS FOR REDUCING METHANE EMISSIONS IN RUMINANT POPULATIONS” (Arkea Bio Corp., priority 2022, published 2024)
Where “and” joins values, the source holds several entries; their conditions need not be identical. Equal entries are not always repeated. Where two headings read alike, the source gives them in different places.

Experiments:
[1] = system: Methanomicrobium mobile; settings: cited from earlier work
[2] = system: Mbb. Ruminantium; settings: cited from earlier work
[3] = system: Methanosarcina mazei; settings: cited from earlier work
[4] = Adsorbent study: binding affinity and adsorptive capacity for 3-NOP, HPLC at 230 nm
Method: The solution was then placed in an ultrasonic bath for ˜4 hr and then allowed to equilibrate over 24h.

[5] = 3-NOP to adsorbent ratio study; type: physicochemical; settings: 24 hr, HPLC
Method: Optimal loading of 3-NOP onto adsorbents was determined by varying ratios of 3-NOP to adsorbent. 3-NOP and adsorbent were speed mixed at 2000 rpm for 1 min at the following ratios by weight: 1:1.5, 1:2, 1:2.5. The adsorbed 3-NOP powder mixture was then placed in distilled water at 1% 3-NOP loading. The solution was allowed to equilibrate for 24 hr and then an aliquot was taken for HPLC to determine the reduction in 3-NOP concentration.

[6] = system: rumen methanogens; settings: cited from earlier work
[7] = system: methane production in ruminants; settings: 10 mmol/L; cited from earlier work
[8] = system: rumen methanogens; settings: sheep, cited from earlier work
[9] = system: ovalbumin (OVA); assay: OVA-specific IgG ELISA of sera after IM or SQ vaccination; type: in vivo, dairy cows; settings: for OVA-specific IgG, Absorbance (OD450): one line per animal replicate
Method: (§1) Bovine nucleic acid vaccination protocols (SQ and IM) were assessed in vivo in the dairy cows through the quantification of the adaptive immune response following inoculation with ovalbumin (OVA). Immune response was assessed by quantifying total IgG and OVA-specific IgG over a 28-day period after vaccination. Both SQ and IM vaccination provided a robust immune response, with IM vaccination providing a higher total immune response than SQ vaccination.
(§2) Dairy cows were dried off for a period of eight days prior to vaccination. Each vaccine formulation was administered either by IM or SQ injection to three animals. In total, 15 animals were vaccinated with LNPs containing mRNA and 6 animals were vaccinated with empty LNPs. Intramuscular injections were delivered into the cow's right neck muscle by veterinary-trained staff using an 18-gauge 1-1.5″ needle. Subcutaneous injections were delivered into the cow's right shoulder by veterinary-trained staff using an 18-gauge 0.5-0.75″ needle. Total blood samples (˜20 mL) were collected by veterinary-trained staff. Samples were collected into 10 mL vacutainer tubes (2×10 mL) from the coccygeal vein (tail vein) by needle puncture. Harvested blood samples were then processed via ultracentrifugation for serum collection. Isolated serum samples were aliquoted, labeled and stored in cryogenic tubes at −20° C. until use.
Sera samples were thawed on ice and total IgG was quantified using NovateinBio's Bovine OVA sIgG Antibody ELISA Kit (Cat No. BG-BVN11731) following the manufacturer's recommended protocol. Each of the animals vaccinated with a construct show a demonstrable OVA-specific IgG response over the 28-day test period.

[10] = LNP encapsulation efficiency, RiboGreen assay; type: physicochemical
In short: (§3)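 LNPs were made from mRNA at 0.35 mg/mL with Genvoy-ILM on a NanoAssemblr Ignite, dialysed into Ca/Mg-free DPBS to <0.5% ethanol and 0.2 µm filtered. Size and polydispersity were measured by DLS after 1:10 dilution in DPBS. Encapsulation efficiency was determined by RiboGreen assay per Precision Nanosystems protocol.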

[11] = LNP size and polydispersity by DLS (Malvern Panalytical); type: physicochemical
In short: as §3

[12] = system: total IgG; assay: Total sera IgG by radial immunodiffusion after IM or SQ vaccination with OVA mRNA LNPs; type: in vivo, dairy cows; settings: for Serum IgG Concentration: one line per animal replicate
Method: as §1, §2
Sera samples were thawed on ice and total IgG was quantified using Triple J Farms' Ig Radial Immunodiffusion (RID) kits (Cat No. 728411) following the manufacturers recommended protocol.

[13] = 0.2 g of adsorbent in 10 mL of 1% 3-NOP/H2O, after 24h, control 8.258 mM
[14] = 0.06 to 0.24 mmol/L, dose-dependent

Molecule: 3-bromopropanesulfonate [BPS]
- concentration up to which the species appeared resistant ([1]; pure cultures): 250 µmol/L
- concentration up to which the species appeared resistant ([2]; pure cultures): 250 µmol/L
- concentration up to which the species appeared resistant ([3]; pure cultures): 250 µmol/L

Molecule: O=S(=O)([O-])CCBr.[Na+] [BES, 2-bromoethanesulfonate]
- sensitivity to the inhibitor, ranking of three species ([1]; pure cultures): intermediate
- sensitivity to the inhibitor, ranking of three species ([2]; pure cultures): most sensitive
- sensitivity to the inhibitor, ranking of three species ([3]; pure cultures): least sensitive

Molecule: C[N+](C)(C)CC(=O)O [Betaine]
- 3-NOP concentration [4, 13]: 7.202 mM

Molecule: O=C([O-])CC(O)(CC(=O)[O-])C(=O)[O-].[Bi+3] [Bismuth Citrate]
- 3-NOP concentration [4, 13]: 8.072 mM

Molecule: O=S(=O)([O-])[O-].O=S(=O)([O-])[O-].O=S(=O)([O-])[O-].[Bi+3].[Bi+3] [Bismuth Sulfate]
- 3-NOP concentration [4, 13]: 8.079 mM

Molecule: O=S(=O)([O-])[O-].[Cu+2] [Copper Sulfate]
- 3-NOP concentration [4, 13]: 7.814 mM

Molecule: NC(=O)CC[C@H](N)C(=O)O [Glutamine]
- 3-NOP concentration [4, 13]: 7.588 mM

Molecule: NCCCC[C@H](N)C(=O)O [Lysine]
- Average Integrated Area of 3-NOP in solution ([5]; 3-NOP:Adsorbent 1:1.5, distilled water at 1% 3-NOP loading): 2336.2
- Average Integrated Area of 3-NOP in solution ([5]; 3-NOP:Adsorbent 1:2, distilled water at 1% 3-NOP loading): 2308.9
- Average Integrated Area of 3-NOP in solution ([5]; 3-NOP:Adsorbent 1:2.5, distilled water at 1% 3-NOP loading): 2266.6
- 3-NOP concentration [4]: 18.583 mM

Molecule: CC#CC(=O)OCC [ethyl 2-butynoate]
- sensitivity to the inhibitor, ranking of three species ([1]; pure cultures): intermediate
- sensitivity to the inhibitor, ranking of three species ([2]; pure cultures): most sensitive
- sensitivity to the inhibitor, ranking of three species ([3]; pure cultures): least sensitive

Molecule: CC[C@H](C)C(=O)O[C@H]1C[C@@H](C)C=C2C=C[C@H](C)[C@H](CC[C@@H]3C[C@@H](O)CC(=O)O3)[C@H]21 [lovastatin]
- reduction of total CH4 production by rumen methanogens ([6]; extracted from fermented rice straw, after 48 h in vitro incubation): ~28%
- reduction of CH4 production ([6]; rumen simulation technique (Rusitec), 150 mg/L): approximately 42%

Molecule: O=c1[nH]c(=O)c2nccnc2[nH]1 [lumazin, 2,4-pteridinedione]
- CH4 production [1, 14]: significantly decreased
- CH4 production [2, 14]: significantly decreased
- CH4 production [3, 14]: significantly decreased

Molecule: CC[N+](=O)[O-] [nitroethane]
- Addition amount; maximum methane suppression amount [7]: 10 mmol/L; 96.7% (NE),
- decrease of CH4 production ([8]; orally 24 mg/kg body weight daily for 5 days): up to 45%
- decrease of CH4 production ([8]; orally 72 mg/kg body weight daily for 5 days): ≤ 69%

Molecule: C#CC(=O)O [propynoic acid]
- sensitivity to the inhibitor, ranking of three species ([1]; pure cultures): intermediate
- sensitivity to the inhibitor, ranking of three species ([2]; pure cultures): most sensitive
- sensitivity to the inhibitor, ranking of three species ([3]; pure cultures): least sensitive
- lowering of CH4 production ([6]; 6 mmol/L): 67%
- lowering of CH4 production ([6]; 12 mmol/L): 78%

Molecule: Bovicin HC5
- suppression of CH4 in vitro [6]: 50%

Molecule: Catechin
- CH4 production [6]: decreased CH4 production both in vitro and in vivo

Molecule: Cyclodextrin
- 3-NOP concentration [4, 13]: 7.676 mM

Molecule: Nisin
- suppression of CH4 in vitro [6]: up to 40%

B1: ARK015: mRNA: OVA + STOP, cytosolic OVA; SEQ ID NO: 16675 (nucleic acid)
chain: ATGTTCGTGTTCCTCGTGCTCCTGCCCCTCGTCTCCAGCCAGTGCGTGGGGTCCATAGGGGCTGCTTCTATGGAGTTCTGTTTTGATGTTTTCAAGGAACTGAAGGTTCACCATGCTAACGAGAACATCTTTTACTGTCCAATAGCCATCATGAGTGCGCTTGCTATGGTTTATTTGGGTGCAAAAGATTCTACTCGCACTCAGATTAATAAGGTCGTTAGATTCGACAAGCTTCCAGGGTTTGGAGACAGTATTGAGGCCCAATGTGGAACGTCAGTCAACGTCCATTCTTCTCTGCGGGACATTCTCAACCAAATAACGAAGCCAAACGACGTGTATTCCTTCTCACTCGCGTCACGGCTGTATGCTGAAGAAAGGTATCCTATCTTGCCAGAATATCTCCAGTGCGTCAAGGAGTTGTATCGAGGCGGACTGGAACCGATCAACTTTCAGACTGCAGCCGACCAGGCCCGCGAACTGATCAACAGCTGGGTCGAGTCTCAGACCAATGGGATCATACGCAATGTGTTGCAACCGAGTAGTGTCGACTCTCAGACGGCTATGGTCTTGGTGAACGCTATAGTCTTCAAAGGTCTGTGGGAGAAGACCTTCAAGGATGAAGACACACAAGCGATGCCATTCAGAGTCACCGAACAAGAAAGCAAACCCGTCCAAATGATGTACCAAATTGGGCTTTTTCGGGTGGCCTCTATGGCCTCTGAGAAAATGAAAATATTGGAACTGCCCTTCGCCAGCGGCACAATGAGTATGTTGGTCCTTCTTCCAGATGAAGTCTCAGGTCTCGAACAGCTTGAGTCTATCATTAACTTTGAGAAACTCACTGAATGGACTTCTTCCAATGTGATGGAAGAACGAAAAATCAAAGTCTACCTGCCCCGAATGAAGATGGAAGAGAAATATAATTTGACATCAGTTCTGATGGCCATGGGAATCACAGACGTGTTTTCATCCTCTGCGAATCTGTCTGGCATATCTTCCGCAGAATCTCTCAAGATCAGTCAAGCCGTCCACGCGGCCCATGCTGAGATAAATGAGGCGGGCAGAGAGGTGGTGGGGTCCGCCGAAGCTGGAGTCGACGCAGCTTCTGTCAGTGAAGAATTTAGGGCCGATCATCCTTTCCTGTTCTGCATAAAGCACATAGCTACGAACGCTGTGCTTTTCTTTGGCAGATGCGTTTCTCCATGA
modifications: listed as DNA
- OVA-specific IgG, Absorbance (OD450) ([9]; IM injection, Day 0, dairy cows): 0.842 OD450 and 0.938 OD450 and 0.308 OD450
- OVA-specific IgG, Absorbance (OD450) ([9]; IM injection, Day 14, dairy cows): 1.653 OD450 and 1.048 OD450 and 0.513 OD450
- OVA-specific IgG, Absorbance (OD450) ([9]; IM injection, Day 21, dairy cows): 1.23 OD450 and 1.261 OD450 and 0.443 OD450
- OVA-specific IgG, Absorbance (OD450) ([9]; IM injection, Day 28, dairy cows): 1.097 OD450 and 0.999 OD450 and 0.465 OD450
- OVA-specific IgG, Absorbance (OD450) ([9]; SQ injection, Day 0, dairy cows): 1.394 OD450 and 1.327 OD450 and 3.178 OD450
- OVA-specific IgG, Absorbance (OD450) ([9]; SQ injection, Day 14, dairy cows): 1.287 OD450 and 1.175 OD450 and 2.478 OD450
- OVA-specific IgG, Absorbance (OD450) ([9]; SQ injection, Day 21, dairy cows): 1.504 OD450 and 1.277 OD450 and 1.985 OD450
- OVA-specific IgG, Absorbance (OD450) ([9]; SQ injection, Day 28, dairy cows): 1.368 OD450 and 1.066 OD450 and 1.691 OD450
- OVA-specific IgG response, intramuscular as compared to subcutaneous injection ([9]; dairy cows, FIG. 10): ~4 fold
- Encapsulation efficiency ([10]; mRNA LNPs of Table 18): 62%
- Encapsulation efficiency ([10]; mRNA LNPs, Example 6): 84%
- PDI ([11]; LNP polydispersity, mRNA LNPs of Table 18): 0.130
- Z-avg. ([11]; LNP size, mRNA LNPs of Table 18): 68.06 nm·days
- PDI ([11]; mRNA LNPs, Example 6): 0.1705
- Z-avg. ([11]; mRNA LNPs, Example 6): 96.66 nm·days
- Serum IgG Concentration ([12]; IM injection, Day 0, dairy cows, dose 348-468 ug): 3,658 mg/dL and 4,086 mg/dL and 3,167 mg/dL
- Serum IgG Concentration ([12]; IM injection, Day 14, dairy cows, dose 348-468 ug): 3,692 mg/dL and 5,735 mg/dL and 3,947 mg/dL
- Serum IgG Concentration ([12]; IM injection, Day 21, dairy cows, dose 348-468 ug): 4,070 mg/dL and 2,488 mg/dL and 3,797 mg/dL
- Serum IgG Concentration ([12]; IM injection, Day 28, dairy cows, dose 348-468 ug): 3,272 mg/dL and 4,153 mg/dL and 2,723 mg/dL
- Serum IgG Concentration ([12]; SQ injection, Day 0, dairy cows, dose 353-468 ug): 4,875 mg/dL and 3,680 mg/dL and 2,964 mg/dL
- Serum IgG Concentration ([12]; SQ injection, Day 14, dairy cows, dose 353-468 ug): 5,972 mg/dL and 3,257 mg/dL and 3,894 mg/dL
- Serum IgG Concentration ([12]; SQ injection, Day 21, dairy cows, dose 353-468 ug): 5,722 mg/dL and 3,149 mg/dL and 3,981 mg/dL
- Serum IgG Concentration ([12]; SQ injection, Day 28, dairy cows, dose 353-468 ug): 4,015 mg/dL and 3,009 mg/dL and 2,221 mg/dL
- total sera IgG immune response, treated groups normalized against the empty groups ([12]; dairy cows, 3 animals per construct, 28-day test period, FIG. 9): detectable immune response in at least one of the treated animals
